Measurements as given in PubChem BioAssay (NCI).
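Following 48 hours of exposure in 96-well plates, responses at five concentrations were used to interpolate endpoints linearly. TGI is the concentration that stops growth completely.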

Experiments:
Experiment in all cases: growth of human tumour cells (NCI), 48 h
[1] = tested on: A549 NSCLC
[2] = tested on: M14 melanoma
[3] = tested on: HT29 colon
[4] = tested on: PC-3 prostate
[5] = tested on: NCI-H522 lung
[6] = tested on: 786-0 renal
[7] = tested on: CCRF-CEM leukemia
[8] = tested on: T-47D breast
[9] = tested on: CAKI-1 renal
[10] = tested on: RPMI-8226 leukemia

SMILES | TGI [1] [µM] | TGI [2] [µM] | TGI [3] [µM] | TGI [4] [µM] | TGI [5] [µM] | TGI [6] [µM] | TGI [7] [µM] | TGI [8] [µM] | TGI [9] [µM] | TGI [10] [µM]
COc1ccc2nc(NC(=O)/C(C#N)=C/c3ccccc3)sc2c1 | > 100 | > 100 | > 96.1 | > 100 | 65.4 | > 100 | 59.7 | > 100 | > 100 | > 84.5
CC(C)NC(=O)OCc1c(COC(=O)NC(C)C)n(C)c2c1ccc1sccc12 | > 54.2 | 36.7 | > 82.6 | 43.7 | 15.5 | 36.8 | > 100 | 47.2 | 50.1 | > 58.8
c1ccc(C2=NC3OC2c2ccccc23)cc1 (stereo not given) | > 10 | > 10 | > 10 | > 10 | > 10 | > 10 | > 10 | > 10 | > 10 | > 10
Cc1c(C)n(-c2ccccc2)c2nc(S(C)=O)nc(S(C)=O)c12 (stereo not given) | 31.7 | 6.45 | 25.1 | 19.7 | 4.59 | 10.1 | 3.88 | 8.62 | 2.66 | 5.28
Cc1ccc2c(c1C)C(=O)C1(Cc3cc4c(cc3C1=O)CCC4)C2 (stereo not given) | > 100 | > 100 | > 100 | > 100 | > 100 | > 100 | > 100 | > 100 | > 100 | > 100
O=c1[nH]c(NCc2ccncc2)nc2nc[nH]c12 | > 100 | > 100 | > 100 | > 100 | > 100 | > 100 | > 100 | > 100 | > 100 | > 100
CC1(C)CC(=O)C2=C(C1)C(c1ccccc1Cl)C1C(=O)CC(C)(C)CC1(O)O2 (stereo not given) | > 100 | > 100 | > 100 | > 100 | > 100 | > 100 | > 94.8 | > 100 | > 100 | > 100
CN(C)CCN(c1ccccn1)c1ccccn1 | > 100 | > 100 | > 100 | > 100 | > 100 | > 100 | > 100 | > 100 | > 100 | > 100
C[C@@H]1CC[C@@]2(C)C(C(=O)O)=CCCC2[C@@]1(C)CC(=O)c1ccoc1 (stereo not given in full) | > 25 | > 25 | > 25 | > 25 | > 25 | > 25 | > 25 | > 25 | > 25 | > 25
CCOC(=O)CSc1nc(N)c2c(-c3ccccc3)c3c(nc2n1)CCCC3 | > 100 | > 100 | > 100 | > 100 | > 100 | > 100 | > 100 | > 100 | > 100 | > 100
Cc1ccc(-c2cc(-c3ccco3)c(C#N)c(=S)[nH]2)cc1 | > 100 | > 100 | > 100 | > 100 | > 100 | > 100 | > 100 | 71.5 | > 100 | > 100
CN(C)c1ccc(/C=C(\NC(=O)c2ccccc2)C(=O)NC(CC(=O)O)C(=O)O)cc1 (stereo not given) | > 100 | > 100 | > 100 | > 100 | 46.8 | > 100 | > 100 | > 100 | > 100 | > 100
Clc1cccc(-c2sc(-c3cccs3)cc2Cc2cccs2)c1 | > 10 | > 10 | > 10 | > 10 | > 10 | > 10 | > 10 | > 10 | > 10 | > 10
Cc1ccc2cccc(-c3cccc4ccccc34)c2n1 | > 100 | 55.6 | 76.9 | > 100 | 66.5 | > 100 | 50 | > 100 | > 100 | 40.2
CN1CSC(=S)N(c2cccc(C(F)(F)F)c2)C1 | 73 | 33.8 | 47.7 | 69.1 | 30.8 | 73.6 | > 100 | > 100 | 74 | 39.4
COc1ccc(N=Nc2c(-c3c(OC)cc4occc4c3OC)[nH]c(=O)c(C#N)c2C)cc1 | > 100 | > 100 | > 100 | > 100 | > 100 | > 100 | > 100 | > 100 | > 100 | > 100
c1c[nH]c(-c2cccc3nsnc23)c1 | > 100 | > 100 | > 100 | > 100 | > 100 | > 100 | > 100 | > 100 | > 100 | > 100
CN(CCN1CCCC1)C1CCc2cc(Cl)c(Cl)cc2C1 (stereo not given) | 32.4 | 31.5 | 22.8 | 52.4 | 33 | 28.3 | > 100 | 22.1 | 33.6 | 55.4
